Data reported in patent publication US12410164B2, “Heterocyclic compounds and medical use thereof” (FONDAZIONE TELETHON, priority 2018, dated 2025).

Molecular target: F508del-CFTR (Homo sapiens, UniProt P13569, DEL508-508)
Test: HS-YFP kinetic fluorescence (iodide quenching rate) assay in CFBE41o− cells
Format: cell-based
Set-up: expressed in transfected cells; host or cells: CFBE41o- cells with expression of F508del-CFTR and HS-YFP (generated as in Sondo et al. 2011)
Conditions: compound at 10 μM plus VX-809; for AI additivity index: Table 3
Method in brief: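 CFBE41o- cells co-expressing F508del-CFTR and HS-YFP, treated 24 h with compound (0.1-0.2% DMSO), then stimulated with 20 μM forskolin plus 50 μM genistein. Fluorescence was read for 14 s during NaI injection. Background-subtracted, normalized traces were fitted exponentially to give maximum quenching rate (QR).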

[1] = Table 1, (QRTOT − QRVX)/QRVX, HS-YFP assay

Chain of F508del-CFTR (P13569 with tags, fused parts or gaps DEL508-508): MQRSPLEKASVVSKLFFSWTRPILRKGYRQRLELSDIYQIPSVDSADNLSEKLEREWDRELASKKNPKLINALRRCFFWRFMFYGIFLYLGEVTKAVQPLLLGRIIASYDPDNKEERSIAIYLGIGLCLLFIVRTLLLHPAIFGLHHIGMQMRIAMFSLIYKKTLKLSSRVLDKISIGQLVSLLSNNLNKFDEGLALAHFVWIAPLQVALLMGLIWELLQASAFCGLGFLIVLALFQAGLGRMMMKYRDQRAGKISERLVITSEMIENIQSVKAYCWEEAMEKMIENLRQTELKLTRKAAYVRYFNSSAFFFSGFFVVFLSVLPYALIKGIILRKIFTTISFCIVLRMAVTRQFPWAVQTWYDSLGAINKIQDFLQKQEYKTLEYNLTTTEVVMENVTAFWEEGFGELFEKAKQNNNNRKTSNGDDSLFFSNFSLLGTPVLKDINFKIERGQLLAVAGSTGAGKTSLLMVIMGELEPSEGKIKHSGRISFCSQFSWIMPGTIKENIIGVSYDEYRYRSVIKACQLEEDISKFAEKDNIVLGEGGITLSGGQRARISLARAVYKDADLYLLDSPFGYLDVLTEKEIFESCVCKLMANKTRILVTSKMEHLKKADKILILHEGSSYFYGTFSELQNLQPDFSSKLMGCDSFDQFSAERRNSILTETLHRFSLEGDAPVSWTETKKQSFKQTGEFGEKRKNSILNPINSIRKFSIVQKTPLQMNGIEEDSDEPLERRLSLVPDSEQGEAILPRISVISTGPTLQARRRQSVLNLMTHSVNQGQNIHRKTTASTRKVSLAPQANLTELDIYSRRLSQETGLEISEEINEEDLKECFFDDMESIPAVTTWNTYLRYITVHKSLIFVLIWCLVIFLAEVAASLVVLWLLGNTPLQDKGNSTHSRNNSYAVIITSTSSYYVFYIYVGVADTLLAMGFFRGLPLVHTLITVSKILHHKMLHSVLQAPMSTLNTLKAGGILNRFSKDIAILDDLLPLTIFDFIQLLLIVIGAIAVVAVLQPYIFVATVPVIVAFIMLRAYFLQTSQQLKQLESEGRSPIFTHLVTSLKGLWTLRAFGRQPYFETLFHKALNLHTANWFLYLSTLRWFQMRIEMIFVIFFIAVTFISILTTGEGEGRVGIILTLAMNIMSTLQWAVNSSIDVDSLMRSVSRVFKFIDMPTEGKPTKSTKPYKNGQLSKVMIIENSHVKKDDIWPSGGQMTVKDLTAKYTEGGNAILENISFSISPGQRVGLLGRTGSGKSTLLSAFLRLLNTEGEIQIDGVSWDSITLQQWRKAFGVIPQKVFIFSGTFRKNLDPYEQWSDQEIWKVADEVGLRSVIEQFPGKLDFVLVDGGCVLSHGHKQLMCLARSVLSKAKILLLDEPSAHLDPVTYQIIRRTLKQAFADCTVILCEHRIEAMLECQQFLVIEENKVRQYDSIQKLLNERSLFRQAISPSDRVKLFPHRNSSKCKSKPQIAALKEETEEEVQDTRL

SMILES | AI (%) additivity index [1] [%] | further results
Cc1cccc(Cn2c(C(=O)NC(C)C)c(Br)c3c2-c2[nH]c(=O)c(S(=O)(=O)c4ccccc4)cc2CC3)c1 [PP091, 7-(Benzenesulfonyl)-3-bromo-1-[(3-methylphenyl)methyl]-8-oxo-N-(propan-2-yl)-4,5,8,9-tetrahydro-1H-pyrrolo[3,2-h]quinoline-2-carboxamide] | 208 | 
CC(C)OC(=O)c1cc2c(n1CC1CC1)-c1[nH]c(=O)c(S(=O)(=O)c3ccccc3)cc1CC2 [PP105, Propan-2-yl 7-(benzenesulfonyl)-1-(cyclopropylmethyl)-8-oxo-4,5,8,9-tetrahydro-1H-pyrrolo[3,2-h]quinoline-2-carboxylate] | 174 | 
CCOC(=O)c1cc2c(n1Cc1ccc(C)c(C)c1)-c1nc(NS(=O)(=O)c3ccccc3)ncc1CC2 [SVQ13, Ethyl 2-[(benzenesulfonyl)amino]-9-[(3,4-dimethylphenyl)methyl]-6,9-dihydro-5H-pyrrolo[3,2-h]quinazoline-8-carboxylate] |  | AI additivity index ((QRTOT-QRVX)/QRVX): 86%
Cc1cccc(Cn2c(C(=O)OC(C)C)c(Br)c3c2-c2[nH]c(=O)c(S(=O)(=O)c4ccccc4)cc2CC3)c1 [PP104, Propan-2-yl 7-(benzenesulfonyl)-3-bromo-1-[(3-methylphenyl)methyl]-8-oxo-4,5,8,9-tetrahydro-1H-pyrrolo[3,2-h]quinoline-2-carboxylate] | 374 | 
CCOC(=O)c1nn(Cc2cccc(C)c2)c2c1CCc1cc(S(=O)(=O)c3ccccc3)c(=O)[nH]c1-2 [PZ3, Ethyl 7-(benzenesulfonyl)-1-[(3-methylphenyl)methyl]-8-oxo-4,5,8,9-tetrahydro-1H-pyrazolo[4,3-h]quinoline-3-carboxylate] |  | AI (%) additivity index (Table 6, (QRTOT-QRVX)/QRVX): 163%
CC(C)NC(=O)c1c(Br)c2c(n1Cc1ccc(Br)cc1)-c1[nH]c(=O)c(S(=O)(=O)c3ccccc3)cc1CC2 [PP097, 7-(Benzenesulfonyl)-3-bromo-1-[(4-bromophenyl)methyl]-8-oxo-N-(propan-2-yl)-4,5,8,9-tetrahydro-1H-pyrrolo[3,2-h]quinoline-2-carboxamide] | 99 | 
CCOC(=O)c1c(Br)c2c(n1Cc1ccc(C)cc1)-c1[nH]c(=O)c(S(=O)(=O)c3ccc(C)cc3)cc1CC2 [PP035, Ethyl 3-bromo-7-(4-methylbenzene-1-sulfonyl)-1-[(4-methylphenyl)methyl]-8-oxo-4,5,8,9-tetrahydro-1H-pyrrolo[3,2-h]quinoline-2-carboxylate] | 56 | 
CCOC(=O)c1c(Br)c2c(n1Cc1ccc(F)cc1)-c1[nH]c(=O)c(S(=O)(=O)c3ccccc3)cc1CC2 [PP073, Ethyl 7-(benzenesulfonyl)-3-bromo-1-[(4-fluorophenyl)methyl]-8-oxo-4,5,8,9-tetrahydro-1H-pyrrolo[3,2-h]quinoline-2-carboxylate] | 442 | 
Cc1cccc(Cn2c(C(=O)NS(=O)(=O)c3ccccc3)c(Br)c3c2-c2[nH]c(=O)c(S(=O)(=O)c4ccccc4)cc2CC3)c1 [PP100, N,7-di(benzenesulfonyl)-3-bromo-1-[(3-methylphenyl)methyl]-8-oxo-4,5,8,9-tetrahydro-1H-pyrrolo[3,2-h]quinoline-2-carboxamide] | 47 | 
CC(C)OC(=O)c1c(Br)c2c(n1Cc1ccc(F)cc1)-c1[nH]c(=O)c(S(=O)(=O)c3ccccc3)cc1CC2 [PP108, Propan-2-yl 7-(benzenesulfonyl)-3-bromo-1-[(4-fluorophenyl)methyl]-8-oxo-4,5,8,9-tetrahydro-1H-pyrrolo[3,2-h]quinoline-2-carboxylate] | 257 | 
CCOC(=O)c1c(Br)c2c(n1Cc1cccc(C)c1)-c1nc(N)ncc1CC2 [SVQ4, Ethyl 2-amino-7-bromo-9-[(3-methylphenyl)methyl]-6,9-dihydro-5H-pyrrolo[3,2-h]quinazoline-8-carboxylate] |  | AI additivity index ((QRTOT-QRVX)/QRVX): 4%
CCOC(=O)c1c(Br)cc2n1CCc1cc(S(=O)(=O)c3ccccc3)c(=O)[nH]c1-2 [QZN2, Ethyl 3-(benzenesulfonyl)-9-bromo-2-oxo-1,2,5,6-tetrahydropyrrolo[1,2-h][1,7]naphthyridine-8-carboxylate] |  | AI (%) additivity index (Table 4, (QRTOT − QRVX)/QRVX): 19%
CCOC(=O)c1c(Br)c2c(n1Cc1cccc(C)c1)-c1[nH]c(=O)c(S(=O)(=O)c3ccc(Cl)cc3)cc1CC2 [PP030, Ethyl 3-bromo-7-[(4-chlorophenyl)sulfonyl]-1-(3-methylbenzyl)-8-oxo-4,5,8,9-tetrahydro-1H-pyrrolo[3,2-h]quinoline-2-carboxylate] | 96 | 
CCOC(=O)c1ccc2n1CCc1cnc(NC3CCCC3)nc1-2 [QZQ14, Ethyl 2-(cyclopentylamino)-5,6-dihydropyrimido[5,4-g]indolizine-8-carboxylate] |  | AI (%) additivity index (Table 5, (QRTOT-QRVX)/QRVX): 18%
Cc1cccc(Cn2c(C(=O)NC(C)(C)C)c(Br)c3c2-c2[nH]c(=O)c(S(=O)(=O)c4ccccc4)cc2CC3)c1 [PP101, 7-(Benzenesulfonyl)-3-bromo-N-tert-butyl-1-[(3-methylphenyl)methyl]-8-oxo-4,5,8,9-tetrahydro-1H-pyrrolo[3,2-h]quinoline-2-carboxamide] | 249 | 

Second part, led by results:

AI (%) additivity index [1] [%] | SMILES | further results
33 | COC(=O)c1cc2c(n1Cc1ccccc1C)-c1[nH]c(=O)c(S(=O)(=O)c3ccccc3)cc1CC2 [PP020, Methyl 1-(2-methylbenzyl)-8-oxo-7-(phenylsulfonyl)-4,5,8,9-tetrahydro-1H-pyrrolo[3,2-h]quinoline-2-carboxylate] | 
34 | CCOC(=O)c1cc2c(n1CCCN(C)C)-c1[nH]c(=O)c(S(=O)(=O)c3ccccc3)cc1CC2 [PP075, Ethyl 7-(benzenesulfonyl)-1-[3-(dimethylamino)propyl]-8-oxo-4,5,8,9-tetrahydro-1H-pyrrolo[3,2-h]quinoline-2-carboxylate] | 
11 | CCOC(=O)c1cc2c(n1Cc1ccc(C)cc1)-c1[nH]c(=O)c(S(C)(=O)=O)cc1CC2 [PP024, Ethyl 7-(metansulfonyl)-1-[(4-methylphenyl)methyl]-8-oxo-4,5,8,9-tetrahydro-1H-pyrrolo[3,2-h]quinoline-2-carboxylate] | 
116 | CCOC(=O)c1cc2c(n1Cc1c(C)cc(C)cc1C)-c1[nH]c(=O)c(S(=O)(=O)c3ccccc3)cc1CC2 [PP068, Ethyl 7-(benzenesulfonyl)-8-oxo-1-[(2,4,6-trimethylphenyl)methyl]-4,5,8,9-tetrahydro-1H-pyrrolo[3,2-h]quinoline-2-carboxylate] | 
279 | Cc1ccc(Cn2c(C(=O)OC(C)C)cc3c2-c2[nH]c(=O)c(S(=O)(=O)c4ccccc4)cc2CC3)cc1 [PP022, Propan-2-yl 7-(benzenesulfonyl)-1-[(4-methylphenyl)methyl]-8-oxo-4,5,8,9-tetrahydro-1H-pyrrolo[3,2-h]quinoline-2-carboxylate] | 
10 | Cc1cccc(Cn2c(C(=O)NC3CC3)cc3c2-c2[nH]c(=O)c(S(=O)(=O)c4ccccc4)cc2CC3)c1 [PP084, 7-(Benzenesulfonyl)-N-cyclopropyl-1-[(3-methylphenyl)methyl]-8-oxo-4,5,8,9-tetrahydro-1H-pyrrolo[3,2-h]quinoline-2-carboxamide] | 
81 | CCOC(=O)c1c(Br)c2c(n1Cc1ccc(C)nc1)-c1[nH]c(=O)c(S(=O)(=O)c3ccccc3)cc1CC2 [PP067, Ethyl 7-(benzenesulfonyl)-3-bromo-1-[(6-methylpyridin-3-yl)methyl]-8-oxo-4,5,8,9-tetrahydro-1H-pyrrolo[3,2-h]quinoline-2-carboxylate] | 
42 | CCOC(=O)c1cc2c(n1Cc1cccc(C)c1)-c1[nH]c(=O)c(S(=O)(=O)c3ccccc3)cc1CC2 [PP016, Ethyl 1-(3-methylbenzyl)-8-oxo-7-(phenylsulfonyl)-4,5,8,9-tetrahydro-1H-pyrrolo[3,2-h]quinoline-2-carboxylate] | 
89 | CCOC(=O)c1cc2c(n1Cc1ccc(C)cc1)-c1[nH]c(=O)c(S(=O)(=O)c3ccc(C)cc3)cc1CC2 [PP023, Ethyl 7-(4-methylbenzene-1-sulfonyl)-1-[(4-methylphenyl)methyl]-8-oxo-4,5,8,9-tetrahydro-1H-pyrrolo[3,2-h]quinoline-2-carboxylate] | 
244 | CCOC(=O)c1c(Cl)c2c(n1Cc1ccc(C)cc1)-c1[nH]c(=O)c(S(=O)(=O)c3ccccc3)cc1CC2 [PP076, Ethyl 7-(benzenesulfonyl)-3-chloro-1-[(4-methylphenyl)methyl]-8-oxo-4,5,8,9-tetrahydro-1H-pyrrolo[3,2-h]quinoline-2-carboxylate] | 
53 | Cc1cccc(Cn2c(C(=O)NC(C)C)cc3c2-c2[nH]c(=O)c(S(=O)(=O)c4ccccc4)cc2CC3)c1 [PP083, 7-(Benzenesulfonyl)-1-[(3-methylphenyl)methyl]-8-oxo-N-(propan-2-yl)-4,5,8,9-tetrahydro-1H-pyrrolo[3,2-h]quinoline-2-carboxamide] | 
124 | CCOC(=O)c1cc2c(n1Cc1ccccc1C)-c1[nH]c(=O)c(S(=O)(=O)c3ccccc3)cc1CC2 [PP015, Ethyl 1-(2-methylbenzyl)-8-oxo-7-(phenylsulfonyl)-4,5,8,9-tetrahydro-1H-pyrrolo[3,2-h]quinoline-2-carboxylate] | 
420 | CCOC(=O)c1cc2c(n1Cc1ccc(F)cc1)-c1[nH]c(=O)c(S(=O)(=O)c3ccccc3)cc1CC2 [PP072, Ethyl 7-(benzenesulfonyl)-1-[(4-fluorophenyl)methyl]-8-oxo-4,5,8,9-tetrahydro-1H-pyrrolo[3,2-h]quinoline-2-carboxylate] | 
